Measurements from patent publication US11083728B2, “Compositions of cyclin dependent kinase 7 (CDK7) inhibitor” (Syros Pharmaceuticals, Inc., priority 2017, dated 2021).
Values after ≈ are worked out from the molar mass of the structure shown. Like-named read-outs stand apart in the source and are kept apart here.

What was measured:
Assay type in all cases: physicochemical
[1] = Infusion solution stability in 0.9% Sodium Chloride for Injection; conditions: for Change in concentration: initial vs 4 hours at ambient temperature and light
Procedure: For the infusion solution stability study, duplicate dilutions of the reconstituted Compound 1 in 0.9% Sodium Chloride for Injection, LISP to provide the low (0.01 mg/mL) and high dose (0.6 mg/mL) were prepared. Infusion bags and sets used were made of polyolefin and polyethylene-lined respectively. To bracket the concentrations to be used in the clinic, two concentrations (0.01 mg/mL and 0.6 mg/mL of Compound 1) representing lowest and highest doses were selected. The stability of low and high dose infusion bag dilution is summarized in Table 3 and Table 4, respectively.

[2] = Stability of reconstituted solution of the particulate composition (5 mg/mL)
Procedure: The stability of the reconstituted solution of the particulate composition of Compound 1 of Example 1 was determined up to 4 hours. Duplicate vials of Compound 1 were reconstituted each with 5 mL of Water for Injection, USP.

[3] = Long-term storage stability in co-solvents PEG 300 and PEG 400
[4] = Equilibrium solubility in various pharmaceutical excipients
[5] = infusion solution 0.01 mg/mL, 4 hours
[6] = infusion solution 0.01 mg/mL, Initial
[7] = infusion solution 0.6 mg/mL, 4 hours
[8] = infusion solution 0.6 mg/mL, Initial
[9] = reconstituted solution 5 mg/mL, 4 hours
[10] = reconstituted solution 5 mg/mL, Initial
[11] = reconstituted solution, initial vs 4 hours at room temperature and light

Change in concentration ([1]; high dose (0.6 mg/mL)): no changes | Appearance [1, 5]: Yellowish Clear solution | Compound 1 concentration [1, 5]: 0.0099 mg/mL | pH [1, 5]: 8.1 | Appearance [1, 6]: Yellowish Clear solution | Compound 1 concentration [1, 6]: 0.0096 mg/mL | pH [1, 6]: 7.6 | Appearance [1, 7]: Yellowish Clear | Compound 1 concentration [1, 7]: 0.551 mg/mL | Impurities, RRT 1.03 [1, 7]: RRT 1.03 = 0.71% a/a | Impurities, RRT 1.22 [1, 7]: RRT 1.22 = 0.06% a/a | Impurities, RRT 1.43 [1, 7]: RRT = 1.43 = 0.51% a/a | Impurities, RRT 1.60 [1, 7]: RRT = 1.60 = 0.08% a/a | Impurities, Total [1, 7]: Total = 1.4% a/a | pH [1, 7]: 3.6 | Appearance [1, 8]: Yellowish Clear | Compound 1 concentration [1, 8]: 0.552 mg/mL | Impurities, RRT 1.03 [1, 8]: RRT 1.03 = 0.71% a/a | Impurities, RRT 1.22 [1, 8]: RRT 1.22 = 0.06% a/a | Impurities, RRT 1.43 [1, 8]: RRT = 1.43 = 0.51% a/a | Impurities, RRT 1.60 [1, 8]: RRT = 1.60 = 0.08% a/a | Impurities, Total [1, 8]: Total = 1.4% a/a | pH [1, 8]: 3.6 | Change in concentration ([1]; low dose (0.01 mg/mL)): no changes | Change in pH ([1]; low dose dilution (0.01 mg/mL), initial vs 4 hours): increase | Compound 1 concentration [2, 9]: 4.48 mg/mL | Impurities, RRT 1.04 [2, 9]: RRT 1.04 = 0.70% a/a | Impurities, RRT 1.23 [2, 9]: RRT 1.23 = 0.07% a/a | Impurities, RRT 1.44 [2, 9]: RRT 1.44 = 0.59% a/a | Impurities, RRT 1.47 [2, 9]: RRT 1.47 = 0.42% a/a | Impurities, RRT 1.61 [2, 9]: RRT 1.61 = 0.09% a/a | Impurities, Total [2, 9]: Total = 1.9% a/a | pH [2, 9]: 3.2 | Appearance ([2]; reconstituted solution 5 mg/mL, 4 hours, room temperature and light): Yellowish Clear solution | Compound 1 concentration [2, 10]: 4.75 mg/mL | Impurities, RRT 1.04 [2, 10]: RRT 1.04 = 0.71% a/a | Impurities, RRT 1.23 [2, 10]: RRT 1.23 = 0.10% a/a | Impurities, RRT 1.46 [2, 10]: RRT 1.46 = 0.55% a/a | Impurities, RRT 1.48 [2, 10]: RRT1.48 = 0.4 % a/a | Impurities, RRT 1.62 [2, 10]: RRT1.62 = 0.0 % a/a | Impurities, Total [2, 10]: Total = 1.9% a/a | pH [2, 10]: 3.2 | Appearance ([2]; reconstituted solution 5 mg/mL, Initial, n = 2): Yellowish Clear solution | Change in appearance and pH [2, 11]: unchanged | Change in concentration of Compound 1 [2, 11]: slight decrease | Change in impurities [2, 11]: no measurable change | Stability on long-term storage [3]: unstable | solubility ([4]; 50 mM Borate pH 10): <LOQ | solubility ([4]; 50 mM KCl, pH 2, simulated gastric fluid, thermodynamic from solid, 50 mM KCl, pH 2, read-out: Solubility): 3600 µg/mL (≈ 6.13 mM) | solubility ([4]; 50 mM Phosphate pH 8): <LOQ | solubility ([4]; 50 mM citrate, pH 4, aqueous buffer, thermodynamic from solid, 50 mM Citrate pH 4, read-out: Solubility): 3.7 µg/mL (≈ 0.0063 mM) | solubility ([4]; 50 mM phosphate buffer, pH 6, aqueous buffer, thermodynamic from solid, 50 mM Phosphate pH 6, read-out: Solubility): 1.9 µg/mL (≈ 0.00324 mM) | solubility ([4]; 10% Captisol in phosphate buffer, pH 5.5, aqueous with cosolvent or surfactant or cyclodextrin, thermodynamic from solid, 10% Captisol, pH 5.5 (phosphate buffer), read-out: Solubility): 4600 µg/mL (≈ 7.83 mM) | solubility ([4]; 20% Captisol in phosphate buffer, pH 5.5, aqueous with cosolvent or surfactant or cyclodextrin, thermodynamic from solid, 20% Captisol, pH 5.5 (phosphate buffer), read-out: Solubility): 5900 µg/mL (≈ 10 mM) | solubility ([4]; 20% Captisol, 0.1% Tween 80, pH adjusted with HCl, pH 3.5, aqueous with cosolvent or surfactant or cyclodextrin, thermodynamic from solid, 20% Captisol, 0.1% Tween 80, pH 3.5, (HCl), read-out: Solubility): > 10000 µg/mL | Solubility (in words) ([4]; Captisol, especially with acidic conditions (pH 3-4) and Tween 80): good solubility | solubility ([4]; PEG 300): >19400 µg/mL | solubility ([4]; PEG 300, organic solvent or mixture, thermodynamic from solid, PEG 300, read-out: Solubility): > 19000 µg/mL | solubility ([4]; PEG 400): >20800 µg/mL | solubility ([4]; PEG 400, organic solvent or mixture, thermodynamic from solid, PEG 400, read-out: Solubility): > 19000 µg/mL | solubility ([4]; Sorensen phosphate Buffer): <LOQ | solubility ([4]; Tween 80, aqueous with cosolvent or surfactant or cyclodextrin, thermodynamic from solid, Tween 80, read-out: Solubility): 18300 µg/mL (≈ 31.2 mM) | solubility ([4]; dehydrated alcohol, organic solvent or mixture, thermodynamic from solid, Dehydrated Alcohol, read-out: Solubility): 3600 µg/mL (≈ 6.13 mM) | Solubility (in words) ([4]; in water): poorly soluble | solubility ([4]; propylene glycol, organic solvent or mixture, thermodynamic from solid, Propylene Glycol, read-out: Solubility): 4000 µg/mL (≈ 6.81 mM) | solubility ([4]; t-butanol, organic solvent or mixture, thermodynamic from solid, t-Butanol, read-out: Solubility): 3200 µg/mL (≈ 5.45 mM) | solubility ([4]; water, thermodynamic from solid, Water, read-out: Solubility): 0.12 µg/mL (≈ 0.000204 mM)
SMILES: CN(C)C/C=C/C(=O)Nc1ccc(C(=O)N[C@@]2(C)CCC[C@@H](Nc3ncc(Cl)c(-c4c[nH]c5ccccc45)n3)C2)nc1 [Compound 1, N-((1S,3R)-3-(5-chloro-4-(1H-indol-3-yl)pyrimidin-2-ylamino)-1-methylcyclohexyl)-5-((E)-4-(dimethylamino)but-2-enamido)picolinamide]
